US5744476A, “Dopamine D1 agonists for the treatment of dementia” (Interneuron Pharmaceuticals, Inc., priority 1994, dated 1998)
“Also recorded” adds a separate entry of the source. Like-named read-outs stand apart in the source and are kept apart here.

Tests used:
PD patients = details: clinical; cited from earlier work
striatal ACh output = details: cited from earlier work
striatal acetylcholine = experiment: In vivo microdialysis, striatal ACh release; parameters: species or system Male Sprague-Dawley rats; details: for stimulatory effect of DHX on striatal ACh release (blockade): low dose in combination with DHX; for dialysate concentrations of striatal ACh / duration of increase of dialysate concentrations of striatal ACh: i.p.; for duration of increase of dialysate concentrations of striatal ACh: post-injection
Text: (§1) The in vivo microdialysis technique is a method for evaluating the effects of drugs on brain neurotransmitter systems by monitoring the extracellular concentration of neurotransmitters and metabolites in awake freely-moving animals. Probes are implanted directly into the brain of rats and serve to continuously sample the extracellular fluid in the vicinity of the probe. Samples containing the dialyzed extracellular fluid are collected at the outlet of the perfusion system and analyzed for content of brain neurotransmitters and metabolites by high-performance liquid chromatography coupled with electrochemical detection (HPLC-EC).
Male Sprague-Dawley rats weighing 250-350 g were group housed (n=3 per cage) in a temperature-controlled room (23±2° C.) on a 14/10 hr light cycle with free access to food and water. After the surgical procedure, animals were placed in individual cages.
The surgical procedure involved the implantation and fixation of a probe holder/guide cannula to the skull of anesthetized rats. The guide cannula was the attachment site for the rigid concentric microdialysis probes which were implanted into the awake, fully-recovered rat at the onset of the experiment. […] For placement of the guide cannulae, rats were anesthetized with ketamine:xylazine (87:13 mg/kg), shaved and placed in a stereotaxic frame (Narashige Instruments). An incision was made to expose the skull and a small hole was drilled to expose the dura mater for placement of the guide. Guide cannulae were implanted in the striatum according to the following stereotaxic coordinates with reference to bregma: AP -+1.5 mm, L -+2.6 mm and V to dura -2.5 mm (Paxinos and Watson, The rat brain in stereotaxic coordinates, 2nd. ed., Academic Press, London, 1986). The microdialysis probe extended 3.0 mm beyond the tip of the guide cannula which yielded a final ventral placement of 5.5 mm below the dura. The coordinates for placement of the guide into frontal cortex were: AP -+3.0 mm, L -+2.8 mm and V to dura 0 mm, with the probe extending 3.0 mm below the dura. Guide cannulae were fixed to the skull with dental acrylic and anchor screws and a dummy cannula was inserted into each guide for the recovery period. Animals were returned to their home cage and allowed to recover from surgery for 24-48 hrs.
For each experiment, the dialysis probe was connected to a microinfusion pump (CMA-100; Bioanalytical Systems (BAS); W. Lafayette, Ind.) equipped with a liquid switch (CMA-110; BAS) via low dead volume fused-silica tubing (I.D.=75 um; O.D.=150 um). At the time of experiment, the dummy cannula was removed and the probe was inserted through the guide into the conscious animal under light restraint.
The probe was perfused continuously with artificial CSF (composition in Mm: 121 NaCl, 3.5 KCl, 1.2 CaCl2, 1.2 MgCl2, 1.0 NaH2 PO4, 25 NaHCO3, and 0.001 neostigmine) at a flow rate of 1.5 ul/min. Dialysate samples were collected every 20 min (total sample volume=30 μl). A 20 ul aliquot was analyzed immediately for acetylcholine (ACh) content by high-performance liquid chromatography with electrochemical detection (HPLC-EC) (see below for details). A baseline period of at least one hour was allowed prior to invoking any experimental manipulations. […] Sample collection proceeded for a minimum of 3 hrs following drug administration. Upon completion of the experiment, animals were sacrificed by decapitation and brains examined grossly to verify probe placement.
(§2) DHX and SKF 81297, another D1 agonist (Andersen et al., Eur J Pharmacol 188:335, 1990), were administered ip after a stable baseline of ACh release was established in each animal. […] The effects of DHX on ACh release were evaluated in two brain regions associated with cognition (striatum, frontal cortex).

[1] = system: acetylcholine release in the frontal cortex; experiment: In vivo microdialysis, frontal cortex ACh release; parameters: species or system Male Sprague-Dawley rats
Text: as §1, with “(HPLC-EC). […]” for “(HPLC-EC).”
The probe was perfused continuously with artificial CSF (composition in Mm: 121 NaCl, 3.5 KCl, 1.2 CaCl2, 1.2 MgCl2, 1.0 NaH2 PO4, 25 NaHCO3, and 0.001 neostigmine) at a flow rate of 1.5 ul/min. […] A 20 ul aliquot was analyzed immediately for acetylcholine (ACh) content by high-performance liquid chromatography with electrochemical detection (HPLC-EC) (see below for details). […]
as §2, with “cortex). […]” for “cortex).”

cortical ACh release = details: in vivo; cited from earlier work
[2] = system: CADs due to lesions of the medial projection of the basal forebrain to the cortex; details: cited from earlier work
[3] = system: behavioral effects previously associated with D2 antagonists; details: in vivo; cited from earlier work
animals = details: cited from earlier work; for memory-improving effect of nigrostriatal self-stimulation or of d-amphetamine (blockade): in vivo
dopamine D1 receptor = details: cited from earlier work
adenylate cyclase = details: cited from earlier work
monkeys = details: cited from earlier work
rodents = details: cited from earlier work; for retention of win-stay and win-shift tasks: Packard and White, 1989
[4] = system: choice accuracy deficits (CADS) due to scopolamine; details: radial arm maze; cited from earlier work
[5] = system: scopolamine-induced deficits (rats); experiment: Passive avoidance in rats, scopolamine-induced amnesia (step-through latency); details: scopolamine 3.0 mg/kg
6-OHDA-lesioned rats = experiment: Rotational behavior in 6-OHDA-lesioned rats (rodent model of PD); format: in vivo, rat; details: 10 mg/kg
Text: (§3) The test protocol followed is disclosed in Ungerstedt, Acta Physiol. Scand. 82 Supp. 367, p. 49-68 (1971). […] This activity may reside in one or more optical isomers of such a metabolite.

[6] = Concentration of DHX in brain and plasma over time; format: in vivo, rat; details: 10 mg/kg
Text: as §3

[7] = system: MPTP-induced parkinsonism model in primates; details: cited from earlier work

N[C@@H](Cc1ccc(O)c(O)c1)C(=O)O [levodopa]
efficacy in the treatment of PD (PD patients): allowed PD patients to reach normal life expectancies

Oc1cc2c(cc1O)[C@@H](c1ccccc1)CNCC2 [(+)-SKF 38393]
increase of striatal ACh output (striatal ACh output; systemic administration): 75%

CN1CCc2cc(Cl)c(O)cc2[C@@H](c2ccccc2)C1 [SCH23390]
stimulatory effect of DHX on striatal ACh release (blockade) (striatal acetylcholine): completely block the stimulatory effect of DHX on striatal ACh release | stimulatory effect of DHX on striatal ACh release (blockade) (striatal acetylcholine; listed as SCH 23390): completely block the stimulatory effect of administering DHX on striatal acetylcholine release | stimulatory effect of DHX on ACh release in the frontal cortex (blockade) ([1]; low dose in combination with DHX, listed as SCH 23390): completely block the stimulatory effect of administering DHX on acetylcholine release in the frontal cortex; also recorded: sensitive to antagonism by SCH 23390 | effect of D1 agonist on striatal ACh output (blockade) (striatal ACh output; 0.3 mg/kg): blocked | D1 agonist-induced increase in cortical ACh release (blockade) (cortical ACh release): blocked selectively | choice accuracy deficits due to lesions [2]: reversed CADs due to lesions of the medial projection of the basal forebrain to the cortex | behavioral effects [3]: mimic some of the behavioral effects previously associated with D2 antagonists

Oc1cc2c(c(Cl)c1O)CCNCC2c1ccccc1 (centres unmarked) [SKF 81297]
dialysate concentrations of striatal ACh (striatal acetylcholine; 3.0 mg/kg): increase in dialysate concentration of striatal acetylcholine; also recorded: elevated striatal ACh release

NCCc1cc(O)c(O)cc1O [6-OHDA, 6-hydroxydopamine]
learning tasks after lesion of the nigrostriatal tract (animals; avoidance conditioning, Morris water maze): impair a variety of learning tasks | memory-improving effect of nigrostriatal self-stimulation or of d-amphetamine (blockade) (animals): blocked

CC(C)C[C@H]1C(=O)N2CCC[C@H]2[C@]2(O)O[C@](NC(=O)[C@@H]3C=C4c5cccc6[nH]c(Br)c(c56)C[C@H]4N(C)C3)(C(C)C)C(=O)N12 [bromocriptine]
efficacy in the treatment of PD (PD patients): either limited efficacy relative to levodopa or limited long-term efficacy

CCN1CCC[C@H]1CNC(=O)c1c(O)c(Cl)cc(Cl)c1OC [raclopride]
effect of D1 agonist on striatal ACh output (potentiation) (striatal ACh output; administered 60 min after SKF 38393): potentiated

Oc1cc2c(cc1O)C(c1ccccc1)CNCC2 (centres unmarked) [SKF38393]
selectivity for the D1 over the D2 receptor (dopamine D1 receptor): greater than 10 fold | efficacy in stimulating adenylate cyclase relative to dopamine (adenylate cyclase; as efficacious as dopamine): 30-50% | spatial working memory (monkeys; aged and reserpine-treated monkeys): improved spatial working memory in aged and reserpine-treated monkeys | retention of win-stay and win-shift tasks (rodents): but not SKF38393, improved retention of the tasks | choice accuracy deficits due to scopolamine [4]: alleviated choice accuracy deficits (CADS) due to scopolamine

C[C@H](N)Cc1ccccc1 [d-amphetamine]
retention of win-stay and win-shift tasks (rodents): improved retention of the tasks | win-stay acquisition (rodents; post-training intracaudate injection): improved win-stay acquisition | memory improvement (animals; indirect dopamine agonist): memory-improving effects

CCCN1C[C@H](CSC)C[C@@H]2c3cccc4[nH]cc(c34)C[C@H]21 [pergolide]
efficacy in the treatment of PD (PD patients): either limited efficacy relative to levodopa or limited long-term efficacy

CN1[C@@H]2C[C@@H](OC(=O)[C@H](CO)c3ccccc3)C[C@H]1[C@@H]1O[C@@H]12 [Scopolamine]
acquisition of the passive avoidance task (deficit) ([5]; ip, 30 min prior to training): severe deficit in the acquisition of the passive avoidance task

CCCN1CCO[C@@H]2c3cc(O)ccc3CC[C@H]21 [PHNO]
cortical ACh release (cortical ACh release): no effect

Oc1cc2c(cc1O)[C@@H]1c3ccccc3CN[C@H]1CC2 (relative stereo) [DHX, trans-10,11-dihydroxy-5,6,6a,7,8,12b-hexahydrobenzo[a]phenanthridine]
dialysate concentrations of striatal ACh (striatal acetylcholine; 3.0 mg/kg): increase in dialysate concentration of striatal acetylcholine; also recorded: increase dialysate concentrations of striatal ACh | duration of increase of dialysate concentrations of striatal ACh (striatal acetylcholine; 3.0 mg/kg): at least 180 min | dialysate concentrations of striatal ACh (striatal acetylcholine; 10 mg/kg): increase in dialysate concentration of striatal acetylcholine; also recorded: increase dialysate concentrations of striatal ACh | duration of increase of dialysate concentrations of striatal ACh (striatal acetylcholine; 10 mg/kg): at least 180 min | striatal ACh release (striatal acetylcholine; 17.5 mg/kg): appears to be less than that evoked by lower doses | ACh release in the frontal cortex ([1]; injection of DHX): increase in acetylcholine release in the frontal cortex; also recorded: increased ACh release in the frontal cortex | biological activity in a rodent model of PD (rotational behavior), persistence (6-OHDA-lesioned rats): persists long after the levels of DHX in the brain and plasma have diminished | levels of DHX in the brain and plasma [6]: diminished | affinity for D1 receptor (dopamine D1 receptor; D1): nanomolar affinity | selectivity for the D1 over the D2 receptor (dopamine D1 receptor): 12- to 60 fold | potency in the stimulation of adenylate cyclase versus dopamine (adenylate cyclase; versus dopamine): approximately 70 times more potent | efficacy in the stimulation of adenylate cyclase versus dopamine (adenylate cyclase; versus dopamine, in words): as efficacious | eye blink rates ([7]; 0.3 to 0.93 mg/kg, im): increasing eye blink rates | parkinsonian signs (tremor, motor freezing, abnormal posture, rigidity, bradykinesia) ([7]; 0.3 to 0.93 mg/kg, im): dramatically attenuated parkinsonian signs | activity in the MPTP-induced parkinsonism model ([7]; primates): potent activity in the MPTP-induced parkinsonism model in primates | spatial working memory (monkeys; young, intact monkeys): produced improvements in young, intact monkeys | step-through latency ([5]; DHX 0.1 mg/kg): increased step-through latency, however, these increases were not statistically-significant | step-through latency (reversal of scopolamine-induced deficits) ([5]; DHX 0.3 mg/kg, 10 min prior to training): significantly improve scopolamine-induced deficits; also recorded: significantly improved scopolamine-induced deficits in step-through latency | step-through latency ([5]; DHX 1.0 mg/kg): increased step-through latency, however, these increases were not statistically-significant

O=c1[nH]c2ccccc2n1C1CCN(CCCC(c2ccc(F)cc2)c2ccc(F)cc2)CC1 [pimozide]
memory-improving effect of nigrostriatal self-stimulation or of d-amphetamine (blockade) (animals): blocked

CCCN1CCC[C@@H]2Cc3n[nH]cc3C[C@H]21 [quinpirole]
striatal ACh release (striatal acetylcholine; 2.0 mg/kg, data not shown): decreases striatal ACh release

CN1Cc2ccccc2C2c3cccc4[nH]cc(c34)CC21 (single isomer, unassigned) [CY 208-243]
cortical ACh release (cortical ACh release): significantly increased cortical ACh release
